Data set [1] relates to Escherichia coli. The data set is described as follows: Antibacterial activity against Escherichia coli ATCC 25922 assessed as reduction in bacterial growth measured for 18 to 20 hrs by microbroth dilution method. The data set is classed as functional. The settings on record: time 18-20 hrs. A general note: Dilution methods test growth across graded concentrations, often in twofold steps.

Data set [2] deals with Pseudomonas aeruginosa. The data set is described as follows: Antibacterial activity against Pseudomonas aeruginosa ATCC 27853 assessed as reduction in bacterial growth measured for 18 to 20 hrs by microbroth dilution method. The note with it: time 18-20 hrs. It is filed as functional.
In data set [3] the test system is Staphylococcus aureus. The data set is described as follows: Antibacterial activity against Staphylococcus aureus ATCC 29213 assessed as reduction in bacterial growth measured for 18 to 20 hrs by microbroth dilution method. The data set is classed as functional. The settings on record: time 18-20 hrs.
In data set [4] the test system is Bacillus subtilis. The data set is described as follows: Antibacterial activity against Bacillus subtilis ATCC 6051 assessed as reduction in bacterial growth measured for 18 to 20 hrs by microbroth dilution method. It is filed as functional. The settings on record: time 18-20 hrs.
A short description of data set [5]: Hemolytic activity in sheep RBC assessed as hemolysis incubated for 30 mins by microplate reader method. It is filed as toxicity, cell-based, Ovis aries, Erythrocyte. The note with it: sheep red blood cells (erythrocytes), read-out: Activity.
A short description of data set [6]: Hemolytic activity in sheep RBC assessed as 50% hemolysis incubated for 30 mins by microplate reader method. The data set is classed as toxicity, cell-based, Ovis aries, Erythrocyte. The settings on record: sheep red blood cells (erythrocytes).
A short description of data set [7]: Selectivity index, ratio of HC50 for hemolytic activity in sheep RBC assessed as 50% hemolysis incubated for 30 mins by microplate reader method to MIC for antibacterial activity against Escherichia coli ATCC 25922 assessed as reduction in bacterial growth measured for 18 to 20 hrs by microbroth dilution method. The data set is classed as toxicity. The settings on record: sheep red blood cells (erythrocytes), read-out: Selectivity Index.

Data set [8] in a line: Selectivity index, ratio of HC50 for hemolytic activity in sheep RBC assessed as 50% hemolysis incubated for 30 mins by microplate reader method to MIC for antibacterial activity against Pseudomonas aeruginosa ATCC 27853 assessed as reduction in bacterial growth measured for 18 to 20 hrs by microbroth dilution method. The data set is classed as toxicity. The note with it: sheep red blood cells (erythrocytes), read-out: Selectivity Index.

A short description of data set [9]: Selectivity index, ratio of HC50 for hemolytic activity in sheep RBC assessed as 50% hemolysis incubated for 30 mins by microplate reader method to MIC for antibacterial activity against Staphylococcus aureus ATCC 29213 assessed as reduction in bacterial growth measured for 18 to 20 hrs by microbroth dilution method. The note with it: sheep red blood cells (erythrocytes), read-out: Selectivity Index. It is filed as toxicity.

Data set [10] can be described thus: Selectivity index, ratio of HC50 for hemolytic activity in sheep RBC assessed as 50% hemolysis incubated for 30 mins by microplate reader method to MIC for antibacterial activity against Bacillus subtilis ATCC 6051 assessed as reduction in bacterial growth measured for 18 to 20 hrs by microbroth dilution method. The note with it: sheep red blood cells (erythrocytes), read-out: Selectivity Index. The data set is classed as toxicity.

≈ marks a conversion by molar mass, not a printed value.

As a reminder, the MIC is the least concentration at which growth counts as inhibited. As usually defined, the HC50 is the concentration that lyses half of the red blood cells.

Consider `CC[C@H](C)[C@H](NC(=O)[C@H](CCCN)NC(=O)[C@H](CCCN)NC(=O)[C@H](Cc1ccccc1)NC(=O)[C@H](CC(C)C)NC(=O)[C@H](CCCN)NC(=O)[C@H](Cc1c[nH]c2ccccc12)NC(=O)[C@@H](N)CCCN)C(=O)NCC(=O)N[C@@H](C)C(=O)N[C@H](C(=O)N[C@@H](CC(C)C)C(=O)N[C@@H](CCCN)C(=O)N[C@H](C(=O)N[C@@H](CC(C)C)C(N)=O)C(C)C)C(C)C`, for which the MIC in data set [1] amounted to 4 µg/mL (≈ 2.35 µM); in data set [2], 8 µg/mL (≈ 4.71 µM); in data set [3] it was 8 µg/mL (≈ 4.71 µM); in [4] it was 32 µg/mL (≈ 18.8 µM).
Regarding H-KWKLFKKIGAVLRVL-NH2, the MIC in data set [1] was 4 µg/mL; in data set [2], 8 µg/mL; in data set [3], 4 µg/mL; in data set [4] it was 32 µg/mL. For the same compound, the hemolysis at 0.5 h in data set [5] amounted to 10%. In addition, the concentration for 50% haemolysis (HC50) at 0.5 h in data set [6] came out at 280 µg/mL. Moreover, the selectivity ratio at 30 min in data set [7] is 70; in [8], 35; in data set [9] it was 70; in data set [10], 9.
As to H-KWKLFKRIGAVLKVL-NH2, the MIC in data set [1] was found to be 4 µg/mL; in data set [2], 8 µg/mL; in data set [3] it was 4 µg/mL; in data set [4] it was 64 µg/mL. Also, the hemolysis at 0.5 h in data set [5] came to 10%. The HC50 at 0.5 h in data set [6] was over 1000 µg/mL. Also, the selectivity ratio at 30 min was over 250 in data set [7], over 125 in data set [8], over 250 in data set [9] and over 16 in data set [10].
In the case of H-KWKLFRKIGAVLKVL-NH2, the MIC in data set [1] worked out at 4 µg/mL; in data set [2], 8 µg/mL; in [3], 4 µg/mL; in [4], 64 µg/mL. For the same compound, in [5], the hemolysis at 0.5 h was 10%. For the same compound, the HC50 at 0.5 h in data set [6] was 935 µg/mL. The selectivity ratio at 30 min in [7] came to 234; in data set [8], 117; in [9], 234; in data set [10], 15.
Turning to H-KWRLFKKIGAVLKVL-NH2, the MIC amounted to 4 µg/mL in [1], 8 µg/mL in data set [2], 4 µg/mL in data set [3] and 32 µg/mL in data set [4]. For the same compound, in [5], the hemolysis at 0.5 h turned out to be 10%. Besides, in data set [6], the HC50 at 0.5 h was 750 µg/mL. For the same compound, the selectivity ratio at 30 min in [7] was found to be 188; in data set [8], 94; in data set [9], 188; in data set [10], 23.
As for H-RWKLFKKIGAVLKVL-NH2, the MIC worked out at 4 µg/mL in data set [1], 8 µg/mL in data set [2], 4 µg/mL in data set [3] and 32 µg/mL in data set [4]. Also, in [5], the hemolysis at 0.5 h stood at 10%. Besides, the HC50 at 0.5 h in data set [6] worked out at 450 µg/mL. Besides, the selectivity ratio at 30 min in data set [7] is 113; in data set [8], 56; in data set [9], 113; in data set [10], 14.

These data come from ChEMBL document CHEMBL5126613, “Novel CA(1-7)M(2-9) Analogs: Synthesis, Characterization, and Antibacterial Evaluation” (ACS Med Chem Lett, 2022).
